The results in this text go back to patent US20150018311A1, “THERAPEUTIC BORON-CONTAINING COMPOUNDS” (priority 2012, published 2015).

Test in all cases: Growth in liquid media in presence of test compound
Type in all cases: cell-based

The test system of test [1] is Mycobacterium tuberculosis (H37Rv).
For test [2], the system named is Candida albicans (ATCC 90028).
For test [3], the system named is Escherichia coli (ATCC 25922).
The subject of test [4] is Pseudomonas aeruginosa (ATCC 27853).
For test [5], the system named is Staphylococcus aureus (ATCC 25923).
The subject of test [6] is Streptococcus pyogenes (ATCC 19615).

Regarding `N[C@@H](Cc1ccccc1)C(=O)NC[C@@H](Cc1ccccc1)[B-](F)(F)F.[K+]` [Compound 42], the “Growth in the presence of test compound, M. tuberculosis” value (from here on “Growth … M. tuberculosis”) is given as “+” in test [1] (5 mg/L), “−” in test [1] (50 mg/L) and “−” in test [1] (500 mg/L). Further, the results for the “Growth in the presence of test compound, C. albicans” value (from here on “Growth in the presence … C. albicans”) in test [2] (5 mg/L), in test [2] (50 mg/L) and in test [2] (500 mg/L) were “+”, “±” and “±”, respectively. Besides, the “Growth in the presence of test compound, E. coli” value (from here on “Growth in the presence … E. coli”) in test [3] (5 mg/L), in test [3] (50 mg/L) and in test [3] (500 mg/L) was “+” throughout. In addition, the “Growth in the presence of test compound, P. aeruginosa” value (from here on “Growth … P. aeruginosa”) in test [4] (5 mg/L), in test [4] (50 mg/L) and in test [4] (500 mg/L) was “+” each time. The “Growth in the presence of test compound, S. aureus” value (“Growth in the presence … S. aureus” below) in test [5] (5 mg/L), in test [5] (50 mg/L) and in test [5] (500 mg/L) was “+” throughout. Moreover, the figures for the “Growth in the presence of test compound, S. pyogenes” value (shortened to “Growth in the presence … S. pyogenes”) in test [6] (5 mg/L), in test [6] (50 mg/L) and in test [6] (500 mg/L) were “+”, “+” and “±”, respectively.
As to `Cl.N[C@@H](Cc1ccccc1)C(=O)NC[C@@H](Cc1ccc(OC(F)(F)F)cc1)B(O)O` [Compound 57], the “Growth … M. tuberculosis” value in test [1] (5 mg/L) is given as “+”; in test [1] (50 mg/L) it was “−”; in test [1] (500 mg/L) it was “−”. For the same molecule, the “Growth in the presence … C. albicans” value in test [2] (5 mg/L) is listed as “+”; in test [2] (50 mg/L) it was “+”; in test [2] (500 mg/L), “−”. The “Growth in the presence … E. coli” value in test [3] (5 mg/L) was “+”; in test [3] (50 mg/L) it was “+”; in test [3] (500 mg/L) it was “±”. Also, the “Growth … P. aeruginosa” value in test [4] (5 mg/L) was “+”; in test [4] (50 mg/L), “+”; in test [4] (500 mg/L) it was “−”. Further, the “Growth in the presence … S. aureus” value in test [5] (5 mg/L), in test [5] (50 mg/L) and in test [5] (500 mg/L) was “+” each time. Further, the “Growth in the presence … S. pyogenes” value is “+” in test [6] (5 mg/L), “+” in test [6] (50 mg/L) and “−” in test [6] (500 mg/L).
For the molecule `CC1(C)C2CC3OB(CC(Cc4ccccc4)NC(=O)C(N)CCCCN)OC3(C)C1C2` (stereo not drawn) [Compound 44], the “Growth … M. tuberculosis” value in test [1] (5 mg/L) is “+”; in test [1] (50 mg/L) it was “+”; in test [1] (500 mg/L) it was “−”. Besides, the “Growth in the presence … C. albicans” value in test [2] (5 mg/L) is listed as “+”; in test [2] (50 mg/L), “+”; in test [2] (500 mg/L), “±”. Moreover, the “Growth in the presence … E. coli” value in test [3] (5 mg/L) is “+”; in test [3] (50 mg/L) it was “+”; in test [3] (500 mg/L), “−”. For the same molecule, the entries for the “Growth … P. aeruginosa” value in test [4] (5 mg/L), in test [4] (50 mg/L) and in test [4] (500 mg/L) were “+”, “+” and “−”, respectively. Besides, the “Growth in the presence … S. aureus” value in test [5] (5 mg/L) was “+”; in test [5] (50 mg/L), “+”; in test [5] (500 mg/L), “−”. The “Growth in the presence … S. pyogenes” value was “+” in test [6] (5 mg/L), “+” in test [6] (50 mg/L) and “−” in test [6] (500 mg/L).
With `CC1(C)C2CC3OB(CC(Cc4ccccc4)NC(=O)C(N)CCCCN)OC3(C)C1C2` (stereo not drawn) [Compound 54], the “Growth … M. tuberculosis” value in test [1] (5 mg/L) is recorded as “+”; in test [1] (50 mg/L), “+”; in test [1] (500 mg/L), “−”. Moreover, the entries for the “Growth in the presence … C. albicans” value in test [2] (5 mg/L), in test [2] (50 mg/L) and in test [2] (500 mg/L) were “+”, “+” and “−”, respectively. Moreover, the “Growth in the presence … E. coli” value in test [3] (5 mg/L) was “+”; in test [3] (50 mg/L), “+”; in test [3] (500 mg/L), “−”. The “Growth … P. aeruginosa” value in test [4] (5 mg/L) is reported as “+”; in test [4] (50 mg/L) it was “+”; in test [4] (500 mg/L), “−”. Moreover, the entries for the “Growth in the presence … S. aureus” value in test [5] (5 mg/L), in test [5] (50 mg/L) and in test [5] (500 mg/L) were “+”, “+” and “−”, respectively. The “Growth in the presence … S. pyogenes” value in test [6] (5 mg/L) is listed as “+”; in test [6] (50 mg/L), “+”; in test [6] (500 mg/L), “−”.
For `CC1(C)C2CC3OB(C(CNC(=O)C(N)CCCCN)Cc4ccccc4)OC3(C)C1C2` (stereo not drawn) [Compound 13], the “Growth … M. tuberculosis” value is on record as “+” in test [1] (5 mg/L), “−” in test [1] (50 mg/L) and “−” in test [1] (500 mg/L). For the same molecule, the “Growth in the presence … C. albicans” value is given as “+” in test [2] (5 mg/L), “+” in test [2] (50 mg/L) and “−” in test [2] (500 mg/L). Further, the entries for the “Growth in the presence … E. coli” value in test [3] (5 mg/L), in test [3] (50 mg/L) and in test [3] (500 mg/L) were “+”, “+” and “−”, respectively. The entries for the “Growth … P. aeruginosa” value in test [4] (5 mg/L), in test [4] (50 mg/L) and in test [4] (500 mg/L) were “+”, “+” and “−”, respectively. Also, the results for the “Growth in the presence … S. aureus” value in test [5] (5 mg/L), in test [5] (50 mg/L) and in test [5] (500 mg/L) were “+”, “+” and “−”, respectively. The “Growth in the presence … S. pyogenes” value in test [6] (5 mg/L) is on record as “+”; in test [6] (50 mg/L), “+”; in test [6] (500 mg/L), “−”.
As for `CC1(C)C2CC3OB([C@@H](CNC(=O)[C@H](N)CCCCN)Cc4ccccc4)O[C@]3(C)C1C2` (stereo partly drawn) [Compound 12], the “Growth … M. tuberculosis” value in test [1] (5 mg/L) is listed as “±”; in test [1] (50 mg/L), “−”; in test [1] (500 mg/L) it was “−”. For the same molecule, the “Growth in the presence … C. albicans” value in test [2] (5 mg/L) was “+”; in test [2] (50 mg/L), “+”; in test [2] (500 mg/L), “−”. For the same molecule, the “Growth in the presence … E. coli” value in test [3] (5 mg/L) is “+”; in test [3] (50 mg/L) it was “+”; in test [3] (500 mg/L), “−”. Also, the “Growth … P. aeruginosa” value in test [4] (5 mg/L) is listed as “+”; in test [4] (50 mg/L), “+”; in test [4] (500 mg/L) it was “±”. Besides, the entries for the “Growth in the presence … S. aureus” value in test [5] (5 mg/L), in test [5] (50 mg/L) and in test [5] (500 mg/L) were “+”, “+” and “±”, respectively. The “Growth in the presence … S. pyogenes” value in test [6] (5 mg/L) is “+”; in test [6] (50 mg/L) it was “+”; in test [6] (500 mg/L), “−”.
